What was measured:
Type in all cases: cell-based, human
[1] = system: A549 cells (KRAS G12S mutant); assay: Cell proliferation inhibition experiment, 3D spheroid, CellTiter-Glo, A549; settings: Homo sapiens, A549, 120 h, A549 (KRAS G12S mutant) 3D spheroid, 5 days with compound, CellTiter-Glo; read-out: A549 IC50
Summary of the method: (§1)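 Cells seeded in 2% FBS medium in spheroid plates (800 H358 or 400 A549 per well), grown overnight to form 3D spheroids, then exposed to 3.16-fold compound dilutions (0.1% DMSO) for 5 days. CellTiter-Glo luminescence gave inhibition vs DMSO and medium blanks; IC50 by four-parameter fit.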

[2] = system: phosphorylated ERK downstream of KRAS G12C in MIA PaCa2 cells; assay: Cell p-ERK detection experiment (HTRF) in MIA PaCa2; settings: Homo sapiens, MIA PaCa-2, 2 h, MIA PaCa2 cells, 2 hours with compound, Advance ERK phospho-T202/Y204 HTRF kit; read-out: p-ERK IC50
Description: Raw materials and instruments: MIA PaCa-2 purchased from ATCC; article number: CRL-1420; batch number: 63143594; DMEM purchased from Gibco; article number: 11995-065; batch number: 2186878; FBS purchased from Gibco; article number: 10099-141; batch number: 2109290CP; Horse serum purchased from Gibco; article number: 16050-122; batch number: 1818976; Trypsin-EDTA purchased from Gibco; article number: 25200-072; batch number: 2085552; PS purchased from Gibco; article number: 15140-122; batch number: 2145451; DMSO purchased from VWR AMRESCO; article number: 0231-500ML; batch number: 0457C072; 96-well cell culture plate purchased from Corning; article number: 3599; batch number: 22718601; white opaque 96-well plate purchased from Cisbio; article number: 66PL96025; batch number: N°05; Advance ERK phospho-T202/Y204 kit purchased from Cisbio; article number: 64AERPEH; batch number: 11D; microplate reader purchased from PerkinElmer; model: Envision MLD2105-0020; equipment number 1050369.
MIA PaCa2 was a KRAS G12C mutant human pancreatic cancer cell line cultured in 10% FBS+2.5% Horse serum DMEM culture medium. Cells at logarithmic growth stage were taken, digested with trypsin-EDTA, then collected and counted, and 2.5E4 cells were inoculated in a 96-well cell culture plate and cultured overnight. A 3.16-fold gradient concentration stock solution of 1000× compound was prepared with DMSO, and diluted 200-fold to 5× compound stock solution with culture medium. On the second day after cell inoculation, 5× compound stock solution was added to each cell culture well, with a final concentration of 1× and a DMSO content of 0.1%. DMSO was used as experimental control (control). After the compound was added and cultured for two hours, the residual culture medium was removed. 50 μL of cell lysate (from Advance ERK phospho-T202/Y204 kit, the same below) was added to each well, mixed well and incubated for 30 minutes, and then 16 μL of the mixed solution was transferred to a white opaque 96-well plate, and 16 μL of cell lysate was added to the blank wells. After the transfer was completed, 4 μL of p-ERK HTRF antibody (from Advance ERK phospho-T202/Y204 kit) mixture was added to each well, incubated for 4 hours, and the fluorescence value was read with the microplate reader. The inhibition rate of the compound IR (%)=(RLU control -RLU compound)/(RLU control-RLU blank)×100% was calculated. The gradient dilution concentration of the compound and the corresponding cell proliferation inhibition rate were fitted by Prism 8 four-parameter method, and the IC50 value was calculated. The compounds prepared in the above embodiments of the present disclosure have inhibitory activity of 0.0001 μM to 1 μM on the phosphorylated ERK level downstream of the cell channel of KRAS G12C protein mutant; some compounds have inhibitory activity of 0.001 μM to 1 μM or 0.001 μM to 0.5 μM on phosphorylated ERK level downstream of cell channel of KRAS G12C protein mutant.

[3] = system: KRAS G12C mutant NCI-H358 cells; assay: Cell proliferation inhibition experiment, 3D spheroid, CellTiter-Glo, NCI-H358; settings: Homo sapiens, NCI-H358, 120 h, NCI-H358 (KRAS G12C mutant) 3D spheroid, 5 days with compound, CellTiter-Glo; read-out: H358 IC50
Summary of the method: as §1

Structure (SMILES) | IC50 [1] | IC50 [2] | IC50 [3]
C=CC(=O)N1CCN2C(=O)c3c(Oc4ccccc4C(C)C)nc(-c4c(O)cccc4F)c(Cl)c3OC[C@H]2C1 [Z18, (6aR)-8-acryloyl-4-chloro-3-(2-fluoro-6-hydroxyphenyl)-1-(2-isopropylphenoxy)-6,6a,7,8,9,10-hexahydro-12H-pyrazino[2,1-c]pyrido[3,4-f][1,4]oxazepin-12-one] | 8680 nM | 73 nM | 7 nM
C=CC(=O)N1CCN2C(=O)c3c(N4CCCC4(C)C)nc(-c4ccccc4F)c(Cl)c3OC[C@H]2C1 [Z147, (R)-8-acryloyl-4-chloro-1-(2,2-dimethylpyrrolidin-1-yl)-3-(2-fluorophenyl)-6,6a,7,8,9,10-hexahydro-12H-pyrazino[2,1-c]pyrido[3,4-f][1,4]oxazepin-12-one] | – | 180 nM | 22 nM
C=CC(=O)N1CCN2C(=O)c3c(N4CCN5CCC[C@@H]5C4)nc(-c4c(O)cccc4F)c(Cl)c3OC[C@H]2C1 [Z317-2, (6aR)-8-acryloyl-4-chloro-3-(2-fluoro-6-hydroxyphenyl)-1-((R)-hexahydropyrrolo[1,2-a]pyrazin-2(1H)-yl)-6,6a,7,8,9,10-hexahydro-12H-pyrazino[2,1-c]pyrido[3,4-f][1,4]oxazepin-12-one] | – | 162 nM | 23.7 nM
